Data: US10220028B2, “Thio compounds” (The United States of America, as represented by the …, priority 2011, dated 2019)
Entries after “also recorded” stand apart in the source; their conditions may differ.

Columns and labels:
nitrite = assay: Nitrite levels, Griess Reagent System assay; assay type: cell-based; settings: LPS stimulated RAW 264.7 media; FIG. 3
Method: Nitrite levels in the culture media were measured by use of the Griess Reagent System (Promega, Madison, Wis.), following the manufacturer's protocol. The O.D. of unknown samples was read at 520 nm A, compared to a sodium nitrite standard curve (1.5 μM to 100 μM) and nitrite measured media concentrations expressed as a % change from their appropriate control.

TNF-α protein = TNF-α protein assay (ELISA) in LPS stimulated RAW 264.7 culture media; assay type: cell-based, mouse; settings: LPS stimulated RAW 264.7 cells; vs DMSO control
Method: TNF-α protein levels were measured by use of an ELISA specific for mouse TNF-α protein (BioLegend, San Diego, Calif.), O.D.s measured at 450 nm λ, obtained from the unknown samples were compared to a TNF-α protein standard curve (7.8 to 500 pg/ml) and the calculated TNF-α levels are expressed as a % change from their appropriate control or as pg/ml.

IL-2 = assay: Generation of IL-2 by TCR-stimulated T cells (cytokine ELISA); assay type: cell-based, human; settings: FIG. 5B; for concentration at which significant inhibition of IL-2 generation begins: stimulated T cells
Method: (§1) FIGS. 5A-5C. Concentration-dependence of effects of certain compounds on human T cell generation of cytokines. Each column and bar depicts the mean±S.D. of the results of cytokine ELISAs of supernates from T cells of a total of four healthy subjects, of whom two were young and two were old, after three days of incubation with anti-CD3+ anti-CD28 antibodies without (control=100%) and with a drug. The mean±S.D. of control (100%) values for IFN-γ, IL-2 and IL-17, respectively, where 30,915±11,206, 5.8±3.4 and 1149±372 pg/ml. A=IFN-γ, B=IL-2 and C=IL-17. Statistical significance of differences from the controls without an IMD was calculated by a two-sample t test and indicated by + for p<0.05,*for p<0.01 and**for p<0.001.
(§2) The capacity of several different compounds to alter the generation of three distinct immune cytokines by TCR-stimulated T cells of young and old subjects was investigated.

RAW 264.7 cells = assay: Cellular toxicity, lactate dehydrogenase (LDH) assay; assay type: cell-based; settings: from 60 min after addition of LPS, vs DMSO control, FIG. 1
IFN-γ = assay: Generation of IFN-γ by TCR-stimulated T cells (cytokine ELISA); assay type: cell-based, human; settings: FIG. 5A; for concentration at which significant inhibition of IFN-γ generation begins: TCR-stimulated T cells
Method: as §1, §2

[1] = system: LPS stimulated RAW 264.7 cells; assay: Cellular proliferation/health, MTS assay; assay type: cell-based; settings: for cell stress (changes in O.D. values of the MTS assay): FIG. 4
Method: The CellTiter 96 AQueous One Solution Cell Proliferation Assay (Promega, Madison, Wis.) is routinely used as an assay of cell proliferation, and was used herein, according to the manufacturer's recommendations. […] Optical densities were measured after 1 to 2 hours incubation and were expressed as a % change from their appropriate control.

IL-17 = assay: Generation of IL-17 by TCR-stimulated T cells (cytokine ELISA); assay type: cell-based, human; settings: FIG. 5C
Method: as §1
No compound was capable of enhancing TCR-stimulated T cell generation of IL-17. However, there was significant inhibition of generation of IL-17 by dithiolenalidomide at 0.1 μM and higher, lenalidomide at 0.3 μM and higher, dithiothalidomide at 3 μM and higher, and thalidomide only at 100 μM (FIG. 5C). None of the thalidomide-type drugs altered cytokine generation alone in the absence of TCR-directed stimulation (data not shown).

| Structure (SMILES) | levels of nitrite in cell culture media (nitrite) | levels of TNF-α protein in cell culture media (TNF-α protein) | concentration at which significant inhibition of IL-2 generation begins (IL-2) | cellular stress (O.D. values, LDH assay) (RAW 264.7 cells) | concentration at which significant inhibition of IFN-γ generation begins (IFN-γ) | cellular health (MTS assay), relative to 100% control ([1]; 20 μM, LPS stimulated RAW 264.7 cells, FIG. 3) | cellular stress (MTS assay) ([1]; 20 μM, LPS stimulated RAW 264.7 cells, vs DMSO control, FIG. 3) | concentration at and above which IL-17 generation is significantly inhibited (IL-17) | effect on IL-2 generation (IL-2; at up to 100 μM) | inhibition of IFN-γ generation (IFN-γ; at 100 μM) | cell stress (changes in O.D. values of the MTS assay) [1] | mean maximal enhancement of IL-2 generation (IL-2; at 1 μM, mixed group of young and old subjects) | peak enhancement of IFN-γ generation (IFN-γ; at 3 μM) | cellular stress (MTS assay) ([1]; concentrations that far exceed 20 μM, LPS stimulated RAW 264.7 cells, FIG. 3) | toxicity compared to dithiothalidomide ([1]; particularly at drug concentrations or 10 μm or greater) |
| --- | --- | --- | --- | --- | --- | --- | --- | --- | --- | --- | --- | --- | --- | --- | --- |
| O=C1NC(=S)CCC1N1C(=O)c2ccccc2C1=S (stereo not drawn) [dithiothalidomide, 3,6′-Dithiothalidomide] | reduced the levels of nitrite | reduced the levels of TNF-α protein | ≥ 30 µM | evidence of cellular stress | ≥ 3 µM | reduction from the 100% control values | evidence of cellular stress | ≥ 3 µM |  |  |  |  |  |  |  |
| O=C1CCC(N2C(=O)c3ccccc3C2=O)C(=O)N1 (stereo not drawn) [thalidomide, N-α-phthalimidoglutarimide] |  |  |  |  |  |  |  | 100 µM | no detectable effect | only modest inhibition | Neither thalidomide and lenalidomide treatment induced any cell stress |  |  |  |  |
| Nc1cccc2c1CN(C1CCC(=O)NC1=O)C2=O (stereo not drawn) [lenalidomide] |  |  |  |  |  |  |  | ≥ 0.3 µM |  |  | Neither thalidomide and lenalidomide treatment induced any cell stress | 9.5 fold | nearly three-fold |  |  |
| Nc1cccc2c1CN(C1CCC(=S)NC1=O)C2=S (stereo not drawn) [dithiolenalidomide, 1,6′-Dithiolenalidomide] | reduced the levels of nitrite | retained TNF-α inhibitory effect; also recorded: reduced the levels of TNF-α protein | ≥ 3 µM | no evidence of cellular stress | ≥ 1 µM |  |  | ≥ 0.1 µM |  |  |  |  |  | failed to induce any cellular stress | less toxic compared to dithiothalidomide |
